Measured values taken from patent publication US12173309B2, “Compounds for increasing genome editing efficiency” (Max-Planck-Gesellschaft zur Förderung der Wissenschaften …, priority 2017, dated 2024).

Columns and labels:
409-B2 hiPSCs = test: PGE efficiency with recombinant Cpf1 ribonucleoprotein electroporation; assay type: cell-based, human
Source text: The recombinant A.s. Cpf1 and S.p. Cas9 protein and electroporation enhancer was ordered from IDT (Coralville, USA) and nucleofection was done using the manufacturer's protocol, except for the following alterations. […] Cells were counted using the Countess Automated Cell Counter (Invitrogen). […]
CRISPresso (Pinello et al. 2016) was used to analyse sequencing data from CRISPR genome editing experiments for percentage of wildtype, targeted nucleotide substitutions (TNS), indels and mix of TNS and indels. […] Sequencing data from colonies after single cell seeding (FIGS. 3B and C) was further analyzed by evaluating the actual read sequences using SAMtools. Clonal colonies were differentiated from mixed colonies using sequence read proportions. Colonies were counted as clones if the clear majority of reads consisted of a single sequence (homozygous) or of two sequences of similar read count (heterozygous). […]

[1] = Solubility of stock in DMSO; assay type: physicochemical; conditions: 10 mM stock in DMSO
Method: Commercially available small molecules used in this study were NU7026 (SIGMA, […]), TSA (SIGMA, […]), MLN4924 (Adooq BioScience, A11260), NSC 19630 (Calbiochem, 681647), NSC 15520 (ChemBridge, 6048069), AICAR (SIGMA, A9978), RS-1 (Calbiochem, 553510), Resveratrol (Selleckchem, S1396), SCR7 (XcessBio, M60082-2s), L755507 (TOCRIS, 2197), B02 (SIGMA, SML0364) and STL127685 (Vitas-M). STL127685 is a 4-fluorophenyl analog of the non-commercially available STL127705. Stocks of 15 mM (or 10 mM for NU7026) were made using dimethylsulfoxide (DMSO)(Thermo Scientific, D12345). […] Suitable working solutions for different concentrations were made so that addition of each small molecule accounts for a final concentration of 0.08% (or 0.2% for NU7026) DMSO in the media. Addition of all small molecules would lead to a final concentration of 0.7% DMSO.

- solubility [1]: limiting factor
Compound: O=c1cc(N2CCOCC2)oc2c1ccc1ccccc12 [NU7026]
- PGE increase (409-B2 hiPSCs; DMNT1): 2.4 fold
- PGE increase (409-B2 hiPSCs; HPRT): 2.1 fold
